From patent publication US7868135B2, “Compositions of lipopeptide antibiotic derivatives and methods of use thereof” (priority 2003, dated 2011)
Starred links: 1 amine or outer side, 2 acyl side, 3 side chain; linkers in the order of their positions; H or OH if unused. Positions of bridges follow the written chain, without caps; N, C: chain ends. Non-standard residues stand in square brackets, D forms with d. Residues, ends and D or L forms follow the SMILES beside them. ξ: configuration not given here. *: point of attachment. X28 = CCCCCCCC(=O)Nc1cc(NC(=O)CCCCCCC)cc(C(=O)*)c1; ξAbu(βξ-NH2) = CC(N[*:3])C(N[*:1])C(=O)[*:2]; Phac(3-amino) = O=C(Cc1cccc(N[*:1])c1)[*:2]; Pentadecanoyl = CCCCCCCCCCCCCCC(=O)*; ξAsp(βξ-Me) = CC(C(=O)O)C(N)C(=O)O; Palmitoyl = CCCCCCCCCCCCCCCC(=O)*; Tridecanoyl = CCCCCCCCCCCCC(=O)*; X1 = O=C(Cc1ccc(N[*:1])cc1)[*:2]; X5 = CCCCCCCCCCCCn1cc(C(=O)*)nn1; Myristoyl = CCCCCCCCCCCCCC(=O)*; NHtetradecyl = CCCCCCCCCCCCCCN*; ξAbu(3ξ-NH2) = CC(N)C(N)C(=O)O; Undecanoyl = CCCCCCCCCCC(=O)*; Lauroyl = CCCCCCCCCCCC(=O)*; Decanoyl = CCCCCCCCCC(=O)*; 3Abz = Nc1cccc(C(=O)O)c1; Pip = O=C(O)[CH]1CCCCN1; CO = O=C([*:1])[*:2]

System: Staphylococcus aureus (MSSA)
Settings: 24 h
Summary of the method: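 Broth microdilution MIC per NCCLS M7-A6 with doubling serial dilutions, in cation-adjusted Mueller-Hinton broth supplemented with 0.625 mM calcium.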

SMILES	MIC
CCCCCCCCCCCCCCNC(=O)NC(CC(=O)O)C(=O)NC1C(=O)N2CCCCC2C(=O)NC(C(C)C(=O)O)C(=O)NC(CC(=O)O)C(=O)NCC(=O)NC(CC(=O)O)C(=O)NCC(=O)NC(C(C)NC(=O)CNC(=O)[C@@H](N)CCCCN)C(=O)NC(C(C)C)C(=O)N2CCCC2C(=O)NC1C (stereo partly shown) [Compound 277, CH3—(CH2)13—NH—C(═O)-Amphomycin-9-Gly-Lys]	0.5 to 1 mg/L
CCCCCCCCCCCCCCNC(=O)NC(CC(=O)O)C(=O)NC1C(=O)N2CCCCC2C(=O)NC(C(C)C(=O)O)C(=O)NC(CC(=O)O)C(=O)NCC(=O)NC(CC(=O)O)C(=O)NCC(=O)NC(C(C)NC(=O)CN)C(=O)NC(C(C)C)C(=O)N2CCCC2C(=O)NC1C (stereo not shown) [Compound 279, CH3—(CH2)13—NH—C(═O)-Amphomycin-9-Gly]	0.5 mg/L
CCCCCCCCCCCCCCCC(=O)Nc1ccc(CC(=O)NC(CC(=O)O)C(=O)NC2C(=O)N3CCCCC3C(=O)NC(C(C)C(=O)O)C(=O)NC(CC(=O)O)C(=O)NCC(=O)NC(CC(=O)O)C(=O)NCC(=O)NC(C(C)N)C(=O)NC(C(C)C)C(=O)N3CCCC3C(=O)NC2C)cc1 (stereo not drawn) [Compound 281, C16-(p-Apa)-Amphomycin] (Palmitoyl-[X1]D[ξAbu(βξ-NH2)][Pip][ξAsp(βξ-Me)]DGDG[ξAbu(3ξ-NH2)]VP; lactam 3-C; configuration not given here)	2 mg/L
CCCCCCCC(=O)Nc1ccc(C(=O)NC(CC(=O)O)C(=O)NC2C(=O)N3CCCCC3C(=O)NC(C(C)C(=O)O)C(=O)NC(CC(=O)O)C(=O)NCC(=O)NC(CC(=O)O)C(=O)NCC(=O)NC(C(C)N)C(=O)NC(C(C)C)C(=O)N3CCCC3C(=O)NC2C)cc1 (stereo not shown) [Compound 282, C8-PABA-Amphomycin]	32 mg/L
CCCCCCCCCC(=O)Nc1ccc(C(=O)NC(CC(=O)O)C(=O)NC2C(=O)N3CCCCC3C(=O)NC(C(C)C(=O)O)C(=O)NC(CC(=O)O)C(=O)NCC(=O)NC(CC(=O)O)C(=O)NCC(=O)NC(C(C)N)C(=O)NC(C(C)C)C(=O)N3CCCC3C(=O)NC2C)cc1 (stereo not shown) [Compound 283, C10-PABA-Amphomycin]	2 mg/L
CCCCCCCCCCC(=O)Nc1ccc(C(=O)NC(CC(=O)O)C(=O)NC2C(=O)N3CCCCC3C(=O)NC(C(C)C(=O)O)C(=O)NC(CC(=O)O)C(=O)NCC(=O)NC(CC(=O)O)C(=O)NCC(=O)NC(C(C)N)C(=O)NC(C(C)C)C(=O)N3CCCC3C(=O)NC2C)cc1 (stereo not shown) [Compound 284, C11-PABA-Amphomycin]	16 mg/L
CCCCCCCCCCCCC(=O)Nc1ccc(C(=O)NC(CC(=O)O)C(=O)NC2C(=O)N3CCCCC3C(=O)NC(C(C)C(=O)O)C(=O)NC(CC(=O)O)C(=O)NCC(=O)NC(CC(=O)O)C(=O)NCC(=O)NC(C(C)N)C(=O)NC(C(C)C)C(=O)N3CCCC3C(=O)NC2C)cc1 (stereo not shown) [Compound 285, C13-PABA-Amphomycin]	0.25 mg/L
CCCCCCCCCCCNC(=O)NCCC(=O)NC(CC(=O)O)C(=O)NC1C(=O)N2CCCCC2C(=O)NC(C(C)C(=O)O)C(=O)NC(CC(=O)O)C(=O)NCC(=O)NC(CC(=O)O)C(=O)NCC(=O)NC(C(C)N)C(=O)NC(C(C)C)C(=O)N2CCCC2C(=O)NC1C (stereo not drawn) [Compound 286, CH3—(CH2)10—NH—C(═O)-(β-Ala)-Amphomycin]	2 mg/L
CCCCCCCCCCCCCCNC(=O)NCCCC(=O)NC(CC(=O)O)C(=O)NC1C(=O)N2CCCCC2C(=O)NC(C(C)C(=O)O)C(=O)NC(CC(=O)O)C(=O)NCC(=O)NC(CC(=O)O)C(=O)NCC(=O)NC(C(C)N)C(=O)NC(C(C)C)C(=O)N2CCCC2C(=O)NC1C (stereo not shown) [Compound 291, CH3—(CH2)13—NH—C(═O)-(GABA)-Amphomycin]	2 mg/L
CCCCCCCCCC(=O)Nc1cccc(C(=O)NC(CC(=O)O)C(=O)NC2C(=O)N3CCCCC3C(=O)NC(C(C)C(=O)O)C(=O)NC(CC(=O)O)C(=O)NCC(=O)NC(CC(=O)O)C(=O)NCC(=O)NC(C(C)N)C(=O)NC(C(C)C)C(=O)N3CCCC3C(=O)NC2C)c1 (stereo not drawn) [Compound 293, C10-(M-Aminobenzoyl)-Amphomycin] ({Decanoyl-3Abz}-D[ξAbu(βξ-NH2)][Pip][ξAsp(βξ-Me)]DGDG[ξAbu(3ξ-NH2)]VP; lactam 2-C; configuration not given here)	2 mg/L

More lines, now with the values ahead:

MIC	SMILES
0.5 mg/L	CCCCCCCCCCC(=O)Nc1cccc(C(=O)NC(CC(=O)O)C(=O)NC2C(=O)N3CCCCC3C(=O)NC(C(C)C(=O)O)C(=O)NC(CC(=O)O)C(=O)NCC(=O)NC(CC(=O)O)C(=O)NCC(=O)NC(C(C)N)C(=O)NC(C(C)C)C(=O)N3CCCC3C(=O)NC2C)c1 (stereo not drawn) [Compound 294, C11-(M-Aminobenzoyl)-Amphomycin] ({Undecanoyl-3Abz}-D[ξAbu(βξ-NH2)][Pip][ξAsp(βξ-Me)]DGDG[ξAbu(3ξ-NH2)]VP; lactam 2-C; configuration not given here)
0.5 mg/L	CCCCCCCCCCCCCCNC(=O)NCCC(=O)NC(CC(=O)O)C(=O)NC1C(=O)N2CCCCC2C(=O)NC(C(C)C(=O)O)C(=O)NC(CC(=O)O)C(=O)NCC(=O)NC(CC(=O)O)C(=O)NCC(=O)NC(C(C)N)C(=O)NC(C(C)C)C(=O)N2CCCC2C(=O)NC1C (stereo not drawn) [Compound 295, CH3—(CH2)13—NH—C(═O)-(β-Ala)-Amphomycin]
0.25 mg/L	CCCCCCCCCCCC(=O)Nc1cccc(C(=O)NC(CC(=O)O)C(=O)NC2C(=O)N3CCCCC3C(=O)NC(C(C)C(=O)O)C(=O)NC(CC(=O)O)C(=O)NCC(=O)NC(CC(=O)O)C(=O)NCC(=O)NC(C(C)N)C(=O)NC(C(C)C)C(=O)N3CCCC3C(=O)NC2C)c1 (stereo not drawn) [Compound 296, C12-(M-Aminobenzoyl)-Amphomycin] ({Lauroyl-3Abz}-D[ξAbu(βξ-NH2)][Pip][ξAsp(βξ-Me)]DGDG[ξAbu(3ξ-NH2)]VP; lactam 2-C; configuration not given here)
0.25 mg/L	CCCCCCCCCCCCC(=O)Nc1cccc(C(=O)NC(CC(=O)O)C(=O)NC2C(=O)N3CCCCC3C(=O)NC(C(C)C(=O)O)C(=O)NC(CC(=O)O)C(=O)NCC(=O)NC(CC(=O)O)C(=O)NCC(=O)NC(C(C)N)C(=O)NC(C(C)C)C(=O)N3CCCC3C(=O)NC2C)c1 (stereo not drawn) [Compound 297, C13-(M-Aminobenzoyl)-Amphomycin] ({Tridecanoyl-3Abz}-D[ξAbu(βξ-NH2)][Pip][ξAsp(βξ-Me)]DGDG[ξAbu(3ξ-NH2)]VP; lactam 2-C; configuration not given here)
0.225 mg/L	CCCCCCCCCCCCC(=O)Nc1ccc(CC(=O)NC(CC(=O)O)C(=O)NC2C(=O)N3CCCCC3C(=O)NC(C(C)C(=O)O)C(=O)NC(CC(=O)O)C(=O)NCC(=O)NC(CC(=O)O)C(=O)NCC(=O)NC(C(C)N)C(=O)NC(C(C)C)C(=O)N3CCCC3C(=O)NC2C)cc1 (stereo not drawn) [Compound 300, C13-(p-Apa)-Amphomycin] (Tridecanoyl-[X1]D[ξAbu(βξ-NH2)][Pip][ξAsp(βξ-Me)]DGDG[ξAbu(3ξ-NH2)]VP; lactam 3-C; configuration not given here)
2 mg/L	CCCCCCCCCCCCCC(=O)Nc1ccc(CC(=O)NC(CC(=O)O)C(=O)NC2C(=O)N3CCCCC3C(=O)NC(C(C)C(=O)O)C(=O)NC(CC(=O)O)C(=O)NCC(=O)NC(CC(=O)O)C(=O)NCC(=O)NC(C(C)N)C(=O)NC(C(C)C)C(=O)N3CCCC3C(=O)NC2C)cc1 (stereo not drawn) [Compound 301, C14-(p-Apa)-Amphomycin] (Myristoyl-[X1]D[ξAbu(βξ-NH2)][Pip][ξAsp(βξ-Me)]DGDG[ξAbu(3ξ-NH2)]VP; lactam 3-C; configuration not given here)
0.5 mg/L	CCCCCCCCCCCCCC(=O)Nc1cccc(CC(=O)NC(CC(=O)O)C(=O)NC2C(=O)N3CCCCC3C(=O)NC(C(C)C(=O)O)C(=O)NC(CC(=O)O)C(=O)NCC(=O)NC(CC(=O)O)C(=O)NCC(=O)NC(C(C)N)C(=O)NC(C(C)C)C(=O)N3CCCC3C(=O)NC2C)c1 (stereo not drawn) [Compound 303, C14-(M-Apa)-Amphomycin] (Myristoyl-[Phac(3-amino)]D[ξAbu(βξ-NH2)][Pip][ξAsp(βξ-Me)]DGDG[ξAbu(3ξ-NH2)]VP; lactam 3-C; configuration not given here)
4 mg/L	CCCCCCCCCCCNC(=O)NCCCC(=O)NC(CC(=O)O)C(=O)NC1C(=O)N2CCCCC2C(=O)NC(C(C)C(=O)O)C(=O)NC(CC(=O)O)C(=O)NCC(=O)NC(CC(=O)O)C(=O)NCC(=O)NC(C(C)N)C(=O)NC(C(C)C)C(=O)N2CCCC2C(=O)NC1C (stereo not shown) [Compound 304, CH3—(CH2)10—NH—C(═O)-GABA-Amphomycin]
1 mg/L	CCCCCCCC(=O)Nc1cc(NC(=O)CCCCCCC)cc(C(=O)NC(CC(=O)O)C(=O)NC2C(=O)N3CCCCC3C(=O)NC(C(C)C(=O)O)C(=O)NC(CC(=O)O)C(=O)NCC(=O)NC(CC(=O)O)C(=O)NCC(=O)NC(C(C)N)C(=O)NC(C(C)C)C(=O)N3CCCC3C(=O)NC2C)c1 (stereo not drawn) [Compound 305, N,N′-di-C8-(M,M-Diaminobenzoyl)-Amphomycin] (X28-D[ξAbu(βξ-NH2)][Pip][ξAsp(βξ-Me)]DGDG[ξAbu(3ξ-NH2)]VP; lactam 2-C; configuration not given here)
0.5 mg/L	CCCCCCCCCCCCCCNC(=O)NCC(=O)NC(CC(=O)O)C(=O)NC1C(=O)N2CCCCC2C(=O)NC(C(C)C(=O)O)C(=O)NC(CC(=O)O)C(=O)NCC(=O)NC(CC(=O)O)C(=O)NCC(=O)NC(C(C)N)C(=O)NC(C(C)C)C(=O)N2CCCC2C(=O)NC1C (stereo not drawn) [Compound 307, CH3—(CH2)13—NH—C(═O)-Gly-Amphomycin] ({NHtetradecyl-CO}-GD[ξAbu(βξ-NH2)][Pip][ξAsp(βξ-Me)]DGDG[ξAbu(3ξ-NH2)]VP; lactam 3-C; configuration not given here)
1 mg/L	CCCCCCCCCCCCn1cc(C(=O)NC(CC(=O)O)C(=O)NC2C(=O)N3CCCCC3C(=O)NC(C(C)C(=O)O)C(=O)NC(CC(=O)O)C(=O)NCC(=O)NC(CC(=O)O)C(=O)NCC(=O)NC(C(C)N)C(=O)NC(C(C)C)C(=O)N3CCCC3C(=O)NC2C)nn1 (stereo not drawn) [Compound 309, 1-Dodecyl-1H-(1,2,3)-Triazole-4-Carboxyl-Amphomycin] (X5-D[ξAbu(βξ-NH2)][Pip][ξAsp(βξ-Me)]DGDG[ξAbu(3ξ-NH2)]VP; lactam 2-C; configuration not given here)
1 mg/L	CCCCCCCCCCCCCCC(=O)Nc1cccc(CC(=O)NC(CC(=O)O)C(=O)NC2C(=O)N3CCCCC3C(=O)NC(C(C)C(=O)O)C(=O)NC(CC(=O)O)C(=O)NCC(=O)NC(CC(=O)O)C(=O)NCC(=O)NC(C(C)N)C(=O)NC(C(C)C)C(=O)N3CCCC3C(=O)NC2C)c1 (stereo not drawn) [Compound 310, C15-(M-Apa)-Amphomycin] (Pentadecanoyl-[Phac(3-amino)]D[ξAbu(βξ-NH2)][Pip][ξAsp(βξ-Me)]DGDG[ξAbu(3ξ-NH2)]VP; lactam 3-C; configuration not given here)
